Substitutions are numbered along the chain they refer to.
Experiments:
rats = settings: 12 mg/kg body weight/day, ref EFSA 2005; cited from earlier work
adult male rats = settings: 90 days, ref Ngoula et al. 2007, cited from earlier work
MDA-kb2 cells = settings: for Cytotoxic EC20 (μM) MDA-kb2: EC20 = concentration that produces a 20% effect
Protocol: (§1) MDA-kb2 cells are human breast cancer cells stably transfected with a firefly luciferase reporter gene that is driven by an androgen-response element–containing promoter ([Wilson et al. 2002]). Details of the modified assay were published previously ([Ermler et al. 2010]). Briefly, cells were seeded at a concentration of 1 × 10^5 cells/mL in phenol red–free Leibowitz-15 medium (Invitrogen Ltd., Paisley, UK) containing 10% (charcoal-stripped) fetal calf serum (Invitrogen Ltd.) in white luminometer plates and allowed to attach for 24 hr. Cells were then exposed to eight serial dilutions of selected pesticides with or without DHT (0.25 nM). After 24 hr, luciferase activity was determined with SteadyGlo assay reagent (Promega UK Ltd., Southampton, Hampshire, UK) and measured in a plate reader (FLUOstar Optima, BMG Labtech GmbH, Offenburg, Germany). […] All concentrations were tested in duplicate over two plates, and each pesticide was measured at least twice in separate experiments. For comparative purposes, luminescence was normalized to DHT alone at coexposure concentration (maximum response, 100%) and solvent-only (ethanol) controls (minimum response, 0%). […] Pesticides were initially tested over a concentration range of 0.64 nM–50 μM (5× dilutions) as a range-finding exercise. Subsequently, the concentration ranges were modified to reflect the potency and toxicity of each individual compound. […] Sixty percent of the pesticides were repeat tested using the same product but with new stock solutions and by a different experimenter.
(§2) To analyze antiandrogenic action, raw luminescence readings were normalized on a plate-by-plate basis to the means of the positive DHT controls (n = 8) and the solvent controls (n = 8) ([Ermler et al. 2010]). […] Specifically, a variety of nonlinear regression models were fitted independently to the same data set, and the best-fitting model was selected using a statistical goodness-of-fit criterion. […] Data considered to be statistically significant at p < 0.05 were analyzed using the best-fit approach as described above. All statistical analysis was performed using SAS statistical software (SAS Institute Inc., Cary, NC, USA). From the best-fitting model, we derived inhibitory concentrations for antiandrogenicity and effect concentrations for cytotoxicity.

[1] = cited from earlier work; for Parent compound remaining on food commodities: stable on food commodities, ref EFSA 2007, 2010a, 2010b
yeast = test: YAS, cytotoxicity (turbidity at 620 nm); format: cell-based; settings: for Cytotoxic EC20 (μM) YAS: EC20 = concentration that produces a 20% effect, yeast turbidity
Protocol: (§3) The methods for the YAS have been described previously ([Sohoni and Sumpter 1998]). Briefly, stimulation of the transfected AR causes a color change in the media, which is measured by absorbance at 540 nm (Labsystems Multiskan Multisoft, Vienna, VA, USA). Plates were also measured at 620 nm to measure cell growth (turbidity) to check for any cytotoxic effects that may have occurred. Pesticides were coincubated with DHT (6.4 nM). […] Incubation time was 53 hr at 28°C. […] Pesticide serial dilutions were tested in duplicate over two plates and were tested in two separate experiments.

[2] = design: method as in Lambright et al. 2000; Taxvig et al. 2007; settings: ref Lambright et al. 2000; Taxvig et al. 2007; cited from earlier work
aromatase = tested on: aromatase; design: method as in Vinggaard et al. 2000; settings: human placental microsomes; ref Vinggaard et al. 2000; cited from earlier work
androgen receptor (AR) [3] = target: T1, androgen receptor (AR) (Homo sapiens, UniProt P10275, Q868H); format: cell-based; settings: androgenic in the absence of DHT; Neg = no response was observed
T1 construct: MDA-kb2 cells are human breast cancer cells stably transfected with a firefly luciferase reporter gene; endogenous in cells; host or cells: MDA-kb2 (human breast cancer cells)
T1 sequence (P10275 1-920 Q868H): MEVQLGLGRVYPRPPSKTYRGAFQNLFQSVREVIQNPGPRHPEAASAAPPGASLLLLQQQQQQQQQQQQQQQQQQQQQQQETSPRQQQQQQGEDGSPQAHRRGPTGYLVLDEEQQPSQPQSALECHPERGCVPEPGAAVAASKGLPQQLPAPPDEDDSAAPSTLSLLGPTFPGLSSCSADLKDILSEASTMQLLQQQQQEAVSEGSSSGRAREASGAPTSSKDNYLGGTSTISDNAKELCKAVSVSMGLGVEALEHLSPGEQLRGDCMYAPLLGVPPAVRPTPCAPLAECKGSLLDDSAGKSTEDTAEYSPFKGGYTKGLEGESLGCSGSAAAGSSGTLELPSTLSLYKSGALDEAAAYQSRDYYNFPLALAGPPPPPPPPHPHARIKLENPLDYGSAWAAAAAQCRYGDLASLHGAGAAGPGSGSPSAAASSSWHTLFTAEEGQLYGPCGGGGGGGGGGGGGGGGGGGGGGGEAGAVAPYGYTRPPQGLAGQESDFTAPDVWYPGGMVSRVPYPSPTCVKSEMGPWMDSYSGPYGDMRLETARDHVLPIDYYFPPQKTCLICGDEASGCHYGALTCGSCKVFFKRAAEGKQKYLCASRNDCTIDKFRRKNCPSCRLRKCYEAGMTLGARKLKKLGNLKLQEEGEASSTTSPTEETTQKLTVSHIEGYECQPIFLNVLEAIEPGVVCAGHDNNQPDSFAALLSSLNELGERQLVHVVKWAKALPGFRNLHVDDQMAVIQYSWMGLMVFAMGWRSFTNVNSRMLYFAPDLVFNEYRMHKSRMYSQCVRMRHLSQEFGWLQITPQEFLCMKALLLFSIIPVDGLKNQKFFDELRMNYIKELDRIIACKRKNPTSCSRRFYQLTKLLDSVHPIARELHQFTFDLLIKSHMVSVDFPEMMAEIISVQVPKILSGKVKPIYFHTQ
Protocol: as §1, §2

androgen receptor (AR) [4] = target: T2, androgen receptor (AR) (Homo sapiens, UniProt P10275); test: cell-based; format: cell-based; settings: for IC20: coincubated with DHT 6.4 nM, 53 hr at 28°C, Neg = no response was observed, read-out: Antiandrogen IC20 (μM) YAS
T2 construct: expressed in transfected cells; host or cells: yeast (YAS strain)
T2 sequence (P10275 1-920): T1 sequence (P10275 1-920 Q868H) with H868Q
Protocol: as §3, with “Briefly,” for “The methods for the YAS have been described previously ([Sohoni and Sumpter 1998]). Briefly,”, “occurred.” for “occurred. Pesticides were coincubated with DHT (6.4 nM).”
Specifically, a variety of nonlinear regression models were fitted independently to the same data set, and the best-fitting model was selected using a statistical goodness-of-fit criterion. […] Data considered to be statistically significant at p < 0.05 were analyzed using the best-fit approach as described above. All statistical analysis was performed using SAS statistical software (SAS Institute Inc., Cary, NC, USA). From the best-fitting model, we derived inhibitory concentrations for antiandrogenicity and effect concentrations for cytotoxicity.

androgen receptor (AR) [5] = target: T1, androgen receptor (AR); test: cell-based; settings: for Antiandrogenic activity in the MDA-kb2 assay (in words): MDA-kb2 / 'our assay'; for IC20: MDA-kb2, read-out: Antiandrogen IC20 (μM) MDA-kb2; for ERR (environmental relevance ratio): total exposure score / IC20 (MDA-kb2), recalculated using experimental data
Protocol: as §1, §2

## CCN(CC)c1nc(C)cc(OP(=S)(OC)OC)n1 [Pirimiphos-methyl]
rats
  Testicular effect of maternal and postnatal exposure: testicular tubular atrophy
Adult male rats; 125 mg/kg body weight/day
  Fertility: decreased fertility
  Sperm density and mobility: decreased sperm density and mobility
Adult male rats
  Testicular atrophy, lowest observed adverse effect level: 41.67 mg/kg body weight/day
MDA-kb2 cells
  Cytotoxic EC20 (μM) MDA-kb2: > 50 µM
[1]; stored grain, < 24 weeks, ref EFSA 2005
  Unchanged parent compound on stored grain: 70%
yeast
  Cytotoxic EC20 (μM) YAS: > 200 µM

## CON(C)C(=O)Nc1ccc(Cl)c(Cl)c1 [Linuron]
MDA-kb2 cells
  Cytotoxic EC20 (μM) MDA-kb2: > 50 µM
[2]
  In vivo antiandrogen (in words): known in vivo antiandrogens

## CC(C)(C)C(O)(CCc1ccc(Cl)cc1)Cn1cncn1 (centres unmarked) [Tebuconazole]
MDA-kb2 cells
  Cytotoxic EC20 (μM) MDA-kb2: 38.9 µM
[2]
  In vivo antiandrogen (in words): known in vivo antiandrogens

## CCCN(CCOc1c(Cl)cc(Cl)cc1Cl)C(=O)n1ccnc1 [Prochloraz]
aromatase
  Aromatase inhibition: inhibited aromatase
MDA-kb2 cells
  Cytotoxic EC20 (μM) MDA-kb2: 12.5 µM

## N#Cc1c[nH]cc1-c1cccc2c1OC(F)(F)O2 [Fludioxonil]
MDA-kb2 cells
  Cytotoxic EC20 (μM) MDA-kb2: 28.5 µM
[1]
  Parent compound remaining on food commodities: > 70%
yeast
  Cytotoxic EC20 (μM) YAS: > 160 µM

## Cc1ccc(N(SC(F)(Cl)Cl)S(=O)(=O)N(C)C)cc1 [Tolylfluanid]
Androgen receptor (AR) [3]
  Androgen EC20 (μM) MDA-kb2: Neg
MDA-kb2 cells
  Cytotoxicity in the MDA-kb2 assay (in words): cytotoxic
  Cytotoxic EC20 (μM) MDA-kb2: 8.09 µM
Androgen receptor (AR) [4]; YAS
  Antiandrogenic activity in the YAS (in words): antiandrogenic
Androgen receptor (AR) [4]
  IC20: 0.234 µM
yeast
  Cytotoxic EC20 (μM) YAS: 1.14 µM
yeast; YAS
  Cytotoxicity in the YAS assay (in words): cytotoxic
Androgen receptor (AR) [5]
  Antiandrogen IC20 (μM) MDA-kb2: Neg
  Antiandrogenic activity in the MDA-kb2 assay (in words): lacked activity

## CC(C)(C)C(=O)C(Oc1ccc(Cl)cc1)n1cncn1 (centres unmarked) [triadimefon]
aromatase
  Aromatase inhibition: inhibited aromatase

## COc1ccc(C(=CC(=O)N2CCOCC2)c2ccc(Cl)cc2)cc1OC [Dimethomorph]
Androgen receptor (AR) [3]
  Androgen EC20 (μM) MDA-kb2: Neg
MDA-kb2 cells
  Cytotoxic EC20 (μM) MDA-kb2: > 25 µM
[1]
  Parent compound remaining on food commodities: > 70%
Androgen receptor (AR) [4]
  IC20: 38.5 µM
yeast
  Cytotoxic EC20 (μM) YAS: > 50 µM
Androgen receptor (AR) [5]
  IC20: 0.263 µM
  Antiandrogenic activity in the MDA-kb2 assay (in words): antiandrogenic
  ERR (environmental relevance ratio): 45.6

## CC1(C(=O)Nc2ccc(O)c(Cl)c2Cl)CCCCC1 [Fenhexamid]
MDA-kb2 cells
  Cytotoxic EC20 (μM) MDA-kb2: 21.6 µM
[1]
  Parent compound remaining on food commodities: > 70%

## CCOc1ccc2c(c1)C(C)=CC(C)(C)N2 [Ethoxyquin]
Androgen receptor (AR) [3]
  Androgen EC20 (μM) MDA-kb2: Neg
MDA-kb2 cells
  Cytotoxic EC20 (μM) MDA-kb2: > 50 µM
Androgen receptor (AR) [4]
  IC20: 11.1 µM
yeast
  Cytotoxic EC20 (μM) YAS: > 200 µM
Androgen receptor (AR) [5]
  IC20: 10.7 µM
  Antiandrogenic activity in the MDA-kb2 assay (in words): in vitro AR antagonists
  ERR (environmental relevance ratio): 0.75

## CC12CC1(C)C(=O)N(c1cc(Cl)cc(Cl)c1)C2=O (centres unmarked) [Procymidone, reference compound]
Androgen receptor (AR) [3]
  Androgen EC20 (μM) MDA-kb2: Neg
MDA-kb2 cells
  Cytotoxicity in the MDA-kb2 assay (in words): nontoxic
  Cytotoxic EC20 (μM) MDA-kb2: > 50 µM
Androgen receptor (AR) [4]
  IC20: 0.956 µM
yeast
  Cytotoxic EC20 (μM) YAS: > 160 µM
Androgen receptor (AR) [5]; MDA-kb2, internal quality control for antiandrogenicity
  IC50: 530 nM
Androgen receptor (AR) [5]
  IC20: 0.163 µM
  Antiandrogenic activity in the MDA-kb2 assay (in words): in vitro AR antagonists
  ERR (environmental relevance ratio): 202.5

## CC(C)(C)C(O)C(Oc1ccc(Cl)cc1)n1cncn1 (centres unmarked) [triadimenol]
aromatase
  Aromatase inhibition: inhibited aromatase

## C=CCOC(Cn1ccnc1)c1ccc(Cl)cc1Cl (centres unmarked) [Imazalil]
aromatase
  Aromatase inhibition: inhibited aromatase
MDA-kb2 cells
  Cytotoxic EC20 (μM) MDA-kb2: 19.0 µM

## CCCC1COC(Cn2cncn2)(c2ccc(Cl)cc2Cl)O1 (centres unmarked) [propiconazole]
aromatase
  Aromatase inhibition: inhibited aromatase

Source: publication PMC3114813 (Environmental Health Perspectives, 2011)
